The values below come from patent US9790233B2, “Compositions and methods of modulating 15-PGDH activity” (CASE WESTERN RESERVE UNIVERSITY, priority 2012, dated 2017).

The data set can be described thus: Hepatocyte stability. The data set is classed as in vitro ADME. The method, then:
Time to inhibition refers to the time needed to inhibit the generation of NADH by 15-PGDH from the moment with drug is added into the reaction mix. Delta Tm refers to the shift in melting temperature of recombinant 15-PGDH in the presence of drug (with cofactor NADH also present). Concentration of Full Cell Line Reporter Induction refers to the concentration of drug that needs to be added to reporter cell line to achieve maximal induction of the 15-PGDH-luciferase gene fusion reporter cassette, as measured by luciferase assays. Hepatocyte stability refers to the half-life of compound in the presence of hepatocytes in culture. Toxicity refers to the concentration of compound needed to decrease cell numbers in a cell culture assay.

Turning to `CCCC[S+]([O-])c1sc2nc(-c3cccs3)cc(-c3ccccc3)c2c1N` (centres unmarked) [SW033291, 2-(butylsulfinyl)-4-phenyl-6-(thiophen-2-yl)thieno[2,3-b]pyridin-3-amine], the Hepatocyte stability result by setting is: (Table 4) “Stable >”; (half-life in presence of hepatocytes in culture, Table 3) “Stable > couple”.
